Source: patent publication US20230159532A1, “PARATHYROID HORMONE (PTH) RECEPTOR ANTAGONISTS AND USES THEREOF” (Crinetics Pharmaceuticals, Inc., priority 2021, published 2023)

Molecular target: T1, human PTHR1 receptor (Homo sapiens, UniProt Q03431)
T1 construct: purchased Eurofins HTS030M
T1 sequence (Q03431 27-593): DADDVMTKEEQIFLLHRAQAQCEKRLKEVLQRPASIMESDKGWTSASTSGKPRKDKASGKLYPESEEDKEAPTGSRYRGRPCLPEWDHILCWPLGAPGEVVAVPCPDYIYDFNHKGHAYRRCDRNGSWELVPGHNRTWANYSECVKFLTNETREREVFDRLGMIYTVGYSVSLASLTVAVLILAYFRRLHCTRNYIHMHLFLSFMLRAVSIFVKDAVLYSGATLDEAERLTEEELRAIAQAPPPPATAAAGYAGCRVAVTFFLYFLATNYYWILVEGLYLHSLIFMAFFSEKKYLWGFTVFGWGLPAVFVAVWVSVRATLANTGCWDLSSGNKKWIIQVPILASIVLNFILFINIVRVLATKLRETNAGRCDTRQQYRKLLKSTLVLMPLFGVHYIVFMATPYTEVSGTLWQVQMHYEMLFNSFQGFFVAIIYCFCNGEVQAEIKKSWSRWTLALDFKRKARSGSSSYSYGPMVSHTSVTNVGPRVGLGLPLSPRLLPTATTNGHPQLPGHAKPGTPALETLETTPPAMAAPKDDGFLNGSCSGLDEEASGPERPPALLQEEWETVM
Assay: Competitive antagonist binding assay for hPTH-R1 (radioactive competition binding, SPA beads)
Conditions: human PTHR1 membranes, [125I]-[Nle8,18,Tyr34]-PTH(1-34) 0.2 nM, 90 minutes at room temperature; read-out: hPTHR1 Ki
Procedure, shortened: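 Displacement of 0.2 nM radioiodinated [Nle8,18,Tyr34]-PTH(1-34) from membrane-bound human PTHR1 measured by scintillation proximity after 90 min at room temperature. Compounds typically 0-10,000 nM final, pH 7.4 HEPES/Mg/Ca buffer with BSA and detergent. Ki calculated from competition data.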

Compound | Ki [nM]
CCN1C(=O)N(c2c(F)cc(NCCNC[C@@H](O)CO)cc2F)c2cc(C#N)ccc2-c2cc(Cl)cnc21 [1-183, 4-chloro-10-{4-[(2-{[(2R)-2,3-dihydroxypropyl]amino}ethyl)amino]-2,6-difluorophenyl}-8-ethyl-9-oxo-6,8,10-triazatricyclo[9.4.0.0^2,7]pentadeca-1(11),2(7),3,5,12,14-hexaene-13-carbonitrile] | < 100
CCN1C(=O)N(c2c(F)cc(NCCN)cc2F)c2cc(C#N)ccc2-c2cc(Cl)cnc21 [1-126, 10-{4-[(2-aminoethyl)amino]-2,6-difluorophenyl}-4-chloro-8-ethyl-9-oxo-6,8,10-triazatricyclo[9.4.0.0^2,7]pentadeca-1(11),2(7),3,5,12,14-hexaene-13-carbonitrile] | < 100
CCN1C(=O)N(c2c(F)cc(NCCNCCC(C)(C)C(=O)O)cc2F)c2cc(C#N)ccc2-c2cc(Cl)cnc21 [1-209, 4-({2-[(4-{4-chloro-13-cyano-8-ethyl-9-oxo-6,8,10-triazatricyclo[9.4.0.0^2,7]pentadeca-1(11),2(7),3,5,12,14-hexaen-10-yl}-3,5-difluorophenyl)amino]ethyl}amino)-2,2-dimethylbutanoic acid] | < 100
CCN1C(=O)N(c2c(F)cc(NCCNCCN3CCNC3=O)cc2F)c2cc(C#N)ccc2-c2cc(Cl)cnc21 [1-228, 4-chloro-10-{2,6-difluoro-4-[(2-{[2-(2-oxoimidazolidin-1-yl)ethyl]amino}ethyl)amino]phenyl}-8-ethyl-9-oxo-6,8,10-triazatricyclo[9.4.0.0^2,7]pentadeca-1(11),2(7),3,5,12,14-hexaene-13-carbonitrile] | < 100
CCNCCNc1cc(F)c(N2C(=O)N(CC)c3ncc(Cl)cc3-c3ccc(C#N)cc32)c(F)c1 [1-133, 4-chloro-8-ethyl-10-(4-{[2-(ethylamino)ethyl]amino}-2,6-difluorophenyl)-9-oxo-6,8,10-triazatricyclo[9.4.0.0^2,7]pentadeca-1(11),2(7),3,5,12,14-hexaene-13-carbonitrile] | < 100
CCN1C(=O)N(c2c(F)cc(NCCNCCNC(=O)OC)cc2F)c2cc(C#N)ccc2-c2cc(Cl)cnc21 [1-167, Methyl N-[2-({2-[(4-{4-chloro-13-cyano-8-ethyl-9-oxo-6,8,10-triazatricyclo[9.4.0.0^2,7]pentadeca-1(11),2(7),3,5,12,14-hexaen-10-yl}-3,5-difluorophenyl)amino]ethyl}amino)ethyl]carbamate] | < 100
CCN1C(=O)N(c2c(F)cc(NCCNCCO)cc2F)c2cc(Cl)cnc2-c2cc(F)cnc21 [3-25, 5-chloro-8-[2,6-difluoro-4-({2-[(2-hydroxyethyl)amino]ethyl}amino)phenyl]-10-ethyl-14-fluoro-3,8,10,12-tetraazatricyclo[9.4.0.0^2,7]pentadeca-1(11),2(7),3,5,12,14-hexaen-9-one] | < 100
4-chloro-10-(2,6-difluoro-4-{[2-(methylamino)ethyl]amino}phenyl)-8-methyl-9-oxo-6,8,10-triazatricyclo[9.4.0.0^2,7]pentadeca-1(11),2(7),3,5,12,14-hexaene-13-carbonitrile [1-211] | < 100
CCN1C(=O)N(c2c(F)cc(NCCNC)cc2F)c2cc(Cl)ccc2-c2nc(C#N)ccc21 [3-16, 13-chloro-10-(2,6-difluoro-4-{[2-(methylamino)ethyl]amino}phenyl)-8-ethyl-9-oxo-3,8,10-triazatricyclo[9.4.0.0^2,7]pentadeca-1(11),2(7),3,5,12,14-hexaene-4-carbonitrile] | 1000 to 10000
CCN1C(=O)N(c2c(F)cc(NCCNCCCC(=O)O)cc2F)c2cc(C#N)cc(C)c2-c2cc(F)cnc21 [1-68, 4-({2-[(4-{13-cyano-8-ethyl-4-fluoro-15-methyl-9-oxo-6,8,10-triazatricyclo[9.4.0.0^2,7]pentadeca-1(11),2(7),3,5,12,14-hexaen-10-yl}-3,5-difluorophenyl)amino]ethyl}amino)butanoic acid] | < 100
CCN1C(=O)N(c2c(F)cc(NCCNCCCC(=O)O)cc2F)c2cc(Cl)cc(F)c2-c2cc(F)cnc21 [1-96, 4-({2-[(4-{13-chloro-8-ethyl-4,15-difluoro-9-oxo-6,8,10-triazatricyclo[9.4.0.0^2,7]pentadeca-1(11),2(7),3,5,12,14-hexaen-10-yl}-3,5-difluorophenyl)amino]ethyl}amino)butanoic acid] | < 100
CCN1C(=O)N(c2c(F)cc(NCCNCCC(=O)O)cc2F)c2cc(Cl)ccc2-c2cc(Cl)cnc21 [1-72, 3-({2-[(4-{4,13-dichloro-8-ethyl-9-oxo-6,8,10-triazatricyclo[9.4.0.0^2,7]pentadeca-1(11),2(7),3,5,12,14-hexaen-10-yl}-3,5-difluorophenyl)amino]ethyl}amino)propanoic acid] | < 100
CCN1C(=O)N(c2c(F)cc(NCCN[C@H]3C[C@@H](O)C3)cc2F)c2cc(C#N)ccc2-c2cc(F)cnc21 [1-232, 10-{2,6-difluoro-4-[(2-{[(1s,3s)-3-hydroxycyclobutyl]amino}ethyl)amino]phenyl}-8-ethyl-4-fluoro-9-oxo-6,8,10-triazatricyclo[9.4.0.0^2,7]pentadeca-1(11),2(7),3,5,12,14-hexaene-13-carbonitrile] | < 100
CCN1C(=O)N(c2c(F)cc(NCCNC)cc2F)c2cc(C#N)ccc2-c2cc(C(F)(F)F)cnc21 [1-97, 10-(2,6-difluoro-4-{[2-(methylamino)ethyl]amino}phenyl)-8-ethyl-9-oxo-4-(trifluoromethyl)-6,8,10-triazatricyclo[9.4.0.0^2,7]pentadeca-1(11),2(7),3,5,12,14-hexaene-13-carbonitrile] | < 100
CCN1C(=O)N(c2c(F)cc(NCCNCCNC)cc2F)c2cc(C#N)ccc2-c2cc(Cl)cnc21 [1-127, 4-chloro-10-{2,6-difluoro-4-[(2-{[2-(methylamino)ethyl]amino}ethyl)amino]phenyl}-8-ethyl-9-oxo-6,8,10-triazatricyclo[9.4.0.0^2,7]pentadeca-1(11),2(7),3,5,12,14-hexaene-13-carbonitrile] | < 100
CCN1C(=O)N(c2c(F)cc(NCCNC)cc2F)c2c(ccc(Cl)c2F)-c2cc(Cl)cnc21 [3-9, 4,13-dichloro-10-(2,6-difluoro-4-{[2-(methylamino)ethyl]amino}phenyl)-8-ethyl-12-fluoro-6,8,10-triazatricyclo[9.4.0.0^2,7]pentadeca-1(11),2(7),3,5,12,14-hexaen-9-one] | < 100
CCN1C(=O)N(c2c(F)cc(NCCN(C)CCO)cc2F)c2cc(Cl)ccc2-c2cc(Cl)cnc21 [1-73, 4,13-dichloro-10-[2,6-difluoro-4-({2-[(2-hydroxyethyl)(methyl)amino]ethyl}amino)phenyl]-8-ethyl-6,8,10-triazatricyclo[9.4.0.0^2,7]pentadeca-1(11),2(7),3,5,12,14-hexaen-9-one] | < 100
CCN1C(=O)N(c2c(F)cc(NCCNC3CCOCC3)cc2F)c2cc(Cl)ccc2-c2cccnc21 [1-4, 13-chloro-10-[2,6-difluoro-4-({2-[(oxan-4-yl)amino]ethyl}amino)phenyl]-8-ethyl-6,8,10-triazatricyclo[9.4.0.0^2,7]pentadeca-1(11),2(7),3,5,12,14-hexaen-9-one] | < 100
CCN1C(=O)N(c2c(F)cc(NCCNC)cc2F)c2cc(C#N)cc(F)c2-c2cc(F)cnc21 [1-102, 10-(2,6-difluoro-4-{[2-(methylamino)ethyl]amino}phenyl)-8-ethyl-4,15-difluoro-9-oxo-6,8,10-triazatricyclo[9.4.0.0^2,7]pentadeca-1(11),2(7),3,5,12,14-hexaene-13-carbonitrile] | < 100
CNCCNc1cc(F)c(N2C(=O)N(C(C)C)c3ncc(Cl)cc3-c3ccc(Cl)cc32)c(F)c1 [1-39, 4,13-dichloro-10-(2,6-difluoro-4-{[2-(methylamino)ethyl]amino}phenyl)-8-(propan-2-yl)-6,8,10-triazatricyclo[9.4.0.0^2,7]pentadeca-1(11),2(7),3,5,12,14-hexaen-9-one] | < 100
CCN1C(=O)N(c2c(F)cc(NCCNCCO)cc2F)c2cc(Cl)ccc2-c2cc(Cl)cnc21 [1-11, 4,13-dichloro-10-[2,6-difluoro-4-({2-[(2-hydroxyethyl)amino]ethyl}amino)phenyl]-8-ethyl-6,8,10-triazatricyclo[9.4.0.0^2,7]pentadeca-1(11),2(7),3,5,12,14-hexaen-9-one] | < 100
CCN1C(=O)N(c2c(F)cc(NCCNCCNS(C)(=O)=O)cc2F)c2cc(C#N)ccc2-c2cc(Cl)cnc21 [1-150, N-[2-({2-[(4-{4-chloro-13-cyano-8-ethyl-9-oxo-6,8,10-triazatricyclo[9.4.0.0^2,7]pentadeca-1(11),2(7),3,5,12,14-hexaen-10-yl}-3,5-difluorophenyl)amino]ethyl}amino)ethyl]methanesulfonamide] | < 100
CCN1C(=O)N(c2c(F)cc(NCCNCC(C)O)cc2F)c2cc(C#N)ccc2-c2cc(Cl)cnc21 (centres unmarked) [1-137, 4-chloro-10-[2,6-difluoro-4-({2-[(2-hydroxypropyl)amino]ethyl}amino)phenyl]-8-ethyl-9-oxo-6,8,10-triazatricyclo[9.4.0.0^2,7]pentadeca-1(11),2(7),3,5,12,14-hexaene-13-carbonitrile] | < 100
